In brackets after ≈: the same amount, converted by molar mass.
How the values were obtained:
Bacillus subtilis = assay: ProTOX (Bs) antibacterial bioassay; assay type: cell-based; settings: for Bs LD99: weight of chemical in last well with activity, real value may be lower
Excerpt: ProTOX, (alternatively referred to herein as Bs) is an antibacterial bioassay, broadly applicable to most aerobic and anaerobic bacteria. The bioassay features a solid phase agar base into which the test compound has been incorporated together with a chromogen. As the bacteria multiply in the well, the chromogen is metabolised from blue in a two-step process to a colourless compound. Compounds with potent bactericidal activity inhibit bacterial metabolism of the chromogen while bacteriostatic compounds induce limited metabolism as indicated by an intermediate pink colour. ProTOX is broadly applicable to a range of gram-positive and gram-negative bacteria under aerobic and microaerophilic conditions. ProTOX assays were carried out using Bacillus subtilis. Briefly, in ProTOX, the bacteria (24 hour broth) were applied to the surface of an agar matrix containing the test sample and allowed to grow for 48 h. The assay was monitored at 24 and 48 hours and the active wells noted. Known antibiotics yield consistent colour transitions which are concentration and time dependent. These patterns provided an important guide to the early recognition of interesting characteristics.

a human tumor cell line = assay: Preliminary screen of growth-inhibiting activity of derivatised EBI-23, EBI-24, EBI-25; assay type: cell-based; settings: growth inhibition
Experimental: A series of derivatisation reactions were conducted on 1 mg amounts of EBI-23, EBI-24, and EBI-25. Mass spectra were run to confirm the nature of the derivatives but the product(s) weren't purified for this preliminary screen of growth-inhibiting activity in a human tumor cell line. The results were compared on the assumption that no losses occurred during derivatisation.

MM96L melanoma = assay: Cell growth inhibition (Table 22), MM96L; assay type: cell-based; settings: Homo sapiens, read-out: IC50 (drug dose which inhibits cell growth by 50%) MM96L
Experimental: (§1) The isolated compounds were tested against a number of human and non-human cancer cell lines. The human tumor cell lines were: MCF-7, MDA-MB-231 and T47D, breast cancer; DU145 and PC3, prostate cancer; CI80-13S, ovarian cancer; MM96L, D04, SkMel5, MM418c5 melanoma; HT29, colon cancer; K562 and HL60, leukemia. Mouse cell lines were the B16 mouse melanoma and LK2 UV-induced squamous cell carcinoma (SCC). Neonatal foreskin fibroblasts (NFF) were used as normal control cells. Cells were cultured at 37° C. in 5% carbon dioxide/air, in RPMI 1640 medium containing 10% fetal calf serum.

prostate DU145 = assay: Additional in vitro activity: antitumor activity, DU145; assay type: cell-based, human; settings: concentration with activity
[1] = system: NS1 murine myeloma cell line; assay: CyTOX (Cy) cytotoxicity bioassay; assay type: cell-based; settings: for Cy LD99: weight of chemical in last well with activity, real value may be lower
Excerpt: CyTOX (alternatively referred to herein as Cy) is a microtitre plate bioassay use to identify potential antitumor actives. CyTOX is a chromogenic bioassay with broad application to a wide range of tumor and non-tumor cell lines. […] CyTOX features a liquid media into which the test compound has been incorporated together with a novel chromogen. As the cells grow and divide the chromogen is metabolised from purple in a single step process to a colourless metabolite. CyTOX is routinely undertaken using NS1 murine myeloma cell line as a guide to mammalian cell toxicity. Briefly, in CyTOX the cells were applied to the media containing the test chemical and allowed to grow for 72 hours. The assay was monitored at 24, 48 and 72 hours and the active wells identified.

B16 mouse melanoma = assay: Cell growth inhibition (Table 22), B16; assay type: cell-based; settings: read-out: IC50 (drug dose which inhibits cell growth by 50%) B16
Experimental: as §1

PC3 prostate cancer = assay: Cell growth inhibition (Table 22), PC3; assay type: cell-based; settings: Homo sapiens, PC-3; read-out: IC50 (drug dose which inhibits cell growth by 50%) PC3
Experimental: as §1

B16 melanoma = assay: Inhibition of B16 melanoma growth in C57BL/6 mice; assay type: in vivo
Experimental: After a preliminary experiment to determine the MTD in mice, C57BL/6 mice were implanted with B16 melanoma cells (0.5 million cells per site, 2 sites per mouse sc, 3 mice/group) and treatment commenced 24 hours later. For this initial study, EBI-23 was prepared by diluting an ethanol solution into saline, such that the final ethanol level was 2%. The cloudy solution thus obtained was injected intraperitoneally into mice every day for 7 days. Tumor size and body weight were measured over time.

[2] = system: control LCL (lymphoblastoid cells); assay: Direct toxicity on control LCL; assay type: cell-based, human; settings: same drug concentrations as MLR (1 μg/mL)
Experimental: (§2) Gamma-irradiated lymphoblastoid cells (LCL, Esptein-Barr virus-transformed B-cells; 17,000) were added to human peripheral blood lymphocytes (PBMC; 50,000 per microtitre well), then the drug, incubated at 37 C as above and labeled with [3H]-thymidine on Day 4. Cells were lysed and washed onto glass fibre mats for scintillation counting. The same drug concentrations were tested for direct toxicity by assay on control LCL (10,000 cells/well).

[3] = system: human peripheral blood lymphocytes (PBMC) with gamma-irradiated LCL; assay: Inhibition of the mixed lymphocyte reaction (MLR); assay type: cell-based; settings: [3H]-thymidine on Day 4
Experimental: as §2
The MLR measures the ability of normal human T-cells to undergo a proliferative response to allo antigens expressed by a non-proliferating B-cell line. […] This was not due to general toxicity because the growth of control LCLs was unaffected.

Trichophyton rubrum = assay: MycoTOX (Tr) antifungal bioassay; assay type: cell-based
Experimental: MycoTOX (alternatively referred to herein as Tr) is a non-chromogenic bioassay used to detect activity against filamentous fungal pathogens of plants and animals. The bioassay features a solid phase agar base into which the test compound has been incorporated. As the growth patterns of filamentous fungi are readily apparent on the agar surface the extent of mycelial growth, sporulation (if relevant to the species under investigation) and colour changes with maturation are measured.
MycoTOX, involves a fungus (spore suspension or mycelial fragments) applied to the surface of an agar matrix containing the test chemical and allowed to grow for a period of up to a week (depending on species). The assay was monitored at two discrete times to identify key development phases in the life cycle (for example mycelial growth and extent of sporulation) and the active wells noted. The monitoring times were dependent on the fungal species under investigation.
The MycoTOX assays were carried out using Trichophyton rubrum.

several cell lines = assay: Morphological and cell cycle effects (flow cytometry); assay type: cell-based; settings: 24 hour treatment, 1 μg/mL
Excerpt: This tends to rule out targets such as PKC (prototype compound PMA), DNA damage (prototype cisplatin), kinases (prototype staurosporine), mitochondria or the plasma membrane (cell lysis).
This was not accompanied, however, by the typical rounded morphology of cells treated with tubulin ligands.

Structure (SMILES): CC/C=C/CCCCCCCCCCCC(O)CC1CC(O)CC2(CC3OC(=O)C=CC3O2)O1 (centres unmarked) [EBI-24]
- Bs LD99 (Bacillus subtilis): 13 µg/mL
- fold less potent than EBI-23 (a human tumor cell line): 10 fold
- IC50 (MM96L melanoma): 1.3 µg/mL (≈ 2.72 µM)
- antitumor activity against prostate DU145 at (prostate DU145): 10 µg/mL
- Cy LD99 [1]: 0.78 µg/mL

Structure (SMILES): CCCCCCCCCCCCCC(O)CC1CC(O)CC2(CC3OC(=O)C=CC3O2)O1 (centres unmarked) [EBI-23]
- IC50 (B16 mouse melanoma): 0.5 µg/mL (≈ 1.1 µM)
- Bs Titre (Bacillus subtilis): 16
- Bs LD99 (Bacillus subtilis; listed as EB77.LA4.92-100): 3.9 µg/mL
- Bs LD99 (Bacillus subtilis; listed as EB116.LA3.31-27/32): 3.1 µg/mL
- Bs LD99 (Bacillus subtilis; listed as EB116.LA3.60-40/42): 6.3 µg/mL
- IC50 (PC3 prostate cancer): 1 µg/mL (≈ 2.21 µM)
- B16 growth (B16 melanoma; 80 μg (per mouse per day) intraperitoneally): measurable response
- B16 growth (B16 melanoma; 250 μg/mouse/day intraperitoneally): significant reduction
- body weight (B16 melanoma; higher dose (250 μg/mouse/day)): some weight loss
- tolerability of regime (B16 melanoma; intraperitoneal daily dosing, C57BL/6 mice): tolerated this regime well
- growth of control LCLs [2]: unaffected
- IC50 (MM96L melanoma): 0.15 µg/mL (≈ 0.331 µM)
- concentration found to inhibit the MLR [3]: 1 µg/mL
- antitumor activity against prostate DU145 at (prostate DU145): 3 µg/mL
- Cy Titre [1]: 256
- Cy LD99 ([1]; listed as EB77.LA4.92-100): 0.24 µg/mL
- Cy LD99 ([1]; listed as EB116.LA3.31-27/32): 0.78 µg/mL
- Cy LD99 ([1]; listed as EB116.LA3.60-40/42): 0.78 µg/mL
- Tr Titre (Trichophyton rubrum): 0
- DNA fragments (apoptosis) (several cell lines): No DNA fragments were detected
- cell cycle effect by flow cytometry (several cell lines): variable degree of G2/M arrest
